Assay results: US9113629B2, “4-amino-6-(4-substituted-phenyl)-picolinates and 6-amino-2-(4-substituted-phenyl)-pyrimidine-4-carboxylates and their use as herbicides” (DOW AGROSCIENCES LLC, priority 2013, dated 2015)
Like-named read-outs stand apart in the source and are kept apart here.

What was measured:
[1] = test system: Key Grass and Sedge Weeds as well as Grass Crops; test: Post-emergent Test II herbicidal activity (Table 6); assay type: in vivo; conditions: post-emergence, 336 h; for pest or weed control at 70 g/ha: 70 g ai/ha; for pest or weed control at 140 g/ha: 140 g ai/ha
How it was run: (§1)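 Post-emergence foliar spray, 187 L/ha, track sprayer at 43 cm above canopy. Carrier: acetone/water/IPA/DMSO/Atplus 411F/Triton X-155. Plants at 1st–2nd true leaf; subirrigated afterwards; % injury scored visually at 14 d.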

[2] = test system: Key Broadleaf Weed and Crop Species; test: Post-emergent Test II herbicidal activity (Table 5); assay type: in vivo; conditions: post-emergence, 336 h, 14 days after application; for pest or weed control at 70 g/ha: application rate 70 g ai/ha; for pest or weed control at 140 g/ha: application rate 140 g ai/ha
How it was run: as §1

[3] = CYPES: yellow nutsedge (Cyperus esculentus), read-out: Visual Growth Reduction (%) 14 Days After Application, CYPES
[4] = DIGSA: crabgrass (Digitaria sanguinalis), read-out: Visual Growth Reduction (%) 14 Days After Application, DIGSA
[5] = ECHCG: barnyardgrass (Echinochloa crus-galli), read-out: Visual Growth Reduction (%) 14 Days After Application, ECHCG
[6] = ORYSA: rice (Oryza sativa), crop, read-out: Visual Growth Reduction (%) 14 Days After Application, ORYSA
[7] = SETFA: giant foxtail (Setaria faberi), read-out: Visual Growth Reduction (%) 14 Days After Application, SETFA
[8] = SORVU: grain sorghum (Sorghum vulgare), read-out: Visual Growth Reduction (%) 14 Days After Application, SORVU
[9] = TRZSS (wheat, Triticum aestivum), crop, read-out: Visual Growth Reduction (%) 14 Days After Application, TRZSS
[10] = ZEAMX: maize, corn (Zea mays), crop, read-out: Visual Growth Reduction (%) 14 Days After Application, ZEAMX
[11] = ABUTH: velvetleaf (Abutilon theophrasti), read-out: Visual Growth Reduction (%) 14 Days After Application, ABUTH
[12] = AMARE: redroot pigweed (Amaranthus retroflexus), read-out: Visual Growth Reduction (%) 14 Days After Application, AMARE
[13] = BRSNN: oilseed-rape, canola (Brassica napus), read-out: Visual Growth Reduction (%) 14 Days After Application, BRSNN
[14] = CHEAL: lambsquarters (Chenopodium album), read-out: Visual Growth Reduction (%) 14 Days After Application, CHEAL
[15] = EPHHL: wild poinsettia (Euphorbia heterophylla), read-out: Visual Growth Reduction (%) 14 Days After Application, EPHHL
[16] = HELAN: sunflower (Helianthus annuus), read-out: Visual Growth Reduction (%) 14 Days After Application, HELAN
[17] = VIOTR: wild pansy (Viola tricolor), read-out: Visual Growth Reduction (%) 14 Days After Application, VIOTR

Nc1c(F)c(-c2ccc(I)c(F)c2)nc(C(=O)O)c1Cl [Compound 157] gave a pest or weed control at 70 g/ha [1, 3] of 45 to 59%, a pest or weed control at 140 g/ha [1, 3] of 45 to 59% and a pest or weed control at 70 g/ha [1, 4] of 75 to 84%. For the same molecule, the pest or weed control at 140 g/ha [1, 4] was 85 to 94%, the pest or weed control at 70 g/ha [1, 5] was 95 to 100% and the pest or weed control at 140 g/ha [1, 5] was 95 to 100%. For the same molecule, the pest or weed control at 70 g/ha [1, 6] was 0 to 29%, the pest or weed control at 140 g/ha [1, 6] was 0 to 29% and the pest or weed control at 70 g/ha [1, 7] was 95 to 100%. For the same molecule, the pest or weed control at 140 g/ha [1, 7] was 95 to 100%, the pest or weed control at 70 g/ha [1, 8] was 85 to 94% and the pest or weed control at 140 g/ha [1, 8] was 95 to 100%. For the same molecule, the pest or weed control at 70 g/ha [1, 9] was 45 to 59%, the pest or weed control at 140 g/ha [1, 9] was 45 to 59% and the pest or weed control at 70 g/ha [1, 10] was 95 to 100%. The pest or weed control at 140 g/ha [1, 10] was 95 to 100%, the melting point was 140 to 150 °C (dec.) and the pest or weed control at 70 g/ha [2, 11] was 85 to 94%. It also gave a pest or weed control at 140 g/ha [2, 11] of 85 to 94%, a pest or weed control at 70 g/ha [2, 12] of 95 to 100% and a pest or weed control at 140 g/ha [2, 12] of 95 to 100%. The pest or weed control at 70 g/ha [2, 13] was 95 to 100%, the pest or weed control at 140 g/ha [2, 13] was 95 to 100% and the pest or weed control at 70 g/ha [2, 14] was 95 to 100%. For the same molecule, the pest or weed control at 140 g/ha [2, 14] was 95 to 100%, the pest or weed control at 70 g/ha [2, 15] was 95 to 100% and the pest or weed control at 140 g/ha [2, 15] was 95 to 100%. It also gave a pest or weed control at 70 g/ha [2, 16] of 95 to 100%, a pest or weed control at 140 g/ha [2, 16] of 95 to 100% and a pest or weed control at 70 g/ha [2, 17] of 95 to 100%. It also gave a pest or weed control at 140 g/ha [2, 17] of 95 to 100%.
